Data on one compound can be found in patent publication US7531537B2, “Benzofuran derivative” (Mitsubishi Tanabe Pharma Corporation, priority 2002, dated 2009).

Data set [1] can be described thus: distribution volume. As to conditions: in vivo.
Data set [2] concerns the target activated blood coagulation factor X (FXa) (Homo sapiens, UniProt P00742). Nature of the data set: FXa inhibitory effect. In kind it is biochemical.

Some results are limits rather than exact numbers.

Sequence of activated blood coagulation factor X (FXa) (P00742 235-488 limits assumed): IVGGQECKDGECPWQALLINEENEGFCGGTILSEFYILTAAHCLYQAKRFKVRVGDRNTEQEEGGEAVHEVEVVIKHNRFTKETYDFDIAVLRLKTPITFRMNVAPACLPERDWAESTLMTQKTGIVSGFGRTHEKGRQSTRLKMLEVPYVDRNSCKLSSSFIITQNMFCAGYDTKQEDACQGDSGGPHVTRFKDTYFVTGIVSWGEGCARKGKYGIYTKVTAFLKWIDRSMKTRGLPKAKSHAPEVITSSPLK
Sequence of activated blood coagulation factor X (FXa) (P00742 41-179 partner limits assumed): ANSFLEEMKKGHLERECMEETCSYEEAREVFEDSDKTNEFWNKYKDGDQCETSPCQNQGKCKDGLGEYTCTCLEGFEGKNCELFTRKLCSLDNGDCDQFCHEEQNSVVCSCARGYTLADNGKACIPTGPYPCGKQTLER

The compound `CN(C)C(=O)c1ccc2oc(C(=O)Nc3ccc(Cl)cn3)c(NC(=O)[C@H]3CC[C@H](N(C)C=O)CC3)c2c1` [trans-5-dimethylaminocarbonyl-3-[4-(N-formyl-N-methylamino)-cyclohexylcarbonylamino]-N-(5-chloropyridin-2-yl)-benzofuran-2-carboxamide] yielded a distribution volume in data set [1] of 0.8 L/kg. Also, the IC50 (as a rule, the concentration that inhibits the measured activity by half) in data set [2] is less than 100 nM.
